According to publication PMC6468028 (Protein & Cell, 2018):

B1: L-fucokinase/GDP-fucose pyrophosphorylase (FKP) from Bacteroides fragilis 9343, full-length wild type (enzyme, UniProt Q58T34 1-949, looked up)
chain: MQKLLSLPSNLVQSFHELERVNRTDWFCTSDPVGKKLGSGGGTSWLLEECYNEYSDGATFGEWLEKEKRILLHAGGQSRRLPGYAPSGKILTPVPVFRWERGQHLGQNLLSLQLPLYEKIMSLAPDKLHTLIASGDVYIRSEKPLQSIPEADVVCYGLWVDPSLATHHGVFASDRKHPEQLDFMLQKPSLAELESLSKTHLFLMDIGIWLLSDRAVEILMKRSHKESSEELKYYDLYSDFGLALGTHPRIEDEEVNTLSVAILPLPGGEFYHYGTSKELISSTLSVQNKVYDQRRIMHRKVKPNPAMFVQNAVVRIPLCAENADLWIENSHIGPKWKIASRHIITGVPENDWSLAVPAGVCVDVVPMGDKGFVARPYGLDDVFKGDLRDSKTTLTGIPFGEWMSKRGLSYTDLKGRTDDLQAVSVFPMVNSVEELGLVLRWMLSEPELEEGKNIWLRSEHFSADEISAGANLKRLYAQREEFRKGNWKALAVNHEKSVFYQLDLADAAEDFVRLGLDMPELLPEDALQMSRIHNRMLRARILKLDGKDYRPEEQAAFDLLRDGLLDGISNRKSTPKLDVYSDQIVWGRSPVRIDMAGGWTDTPPYSLYSGGNVVNLAIELNGQPPLQVYVKPCKDFHIVLRSIDMGAMEIVSTFDELQDYKKIGSPFSIPKAALSLAGFAPAFSAVSYASLEEQLKDFGAGIEVTLLAAIPAGSGLGTSSILASTVLGAINDFCGLAWDKNEICQRTLVLEQLLTTGGGWQDQYGGVLQGVKLLQTEAGFAQSPLVRWLPDHLFTHPEYKDCHLLYYTGITRTAKGILAEIVSSMFLNSSLHLNLLSEMKAHALDMNEAIQRGSFVEFGRLVGKTWEQNKALDSGTNPPAVEAIIDLIKDYTLGYKLPGAGGGGYLYMVAKDPQAAVRIRKILTENAPNPRARFVEMTLSDKGFQVSRS

Assays:
[1] = target: T1, L-fucokinase/GDP-fucose pyrophosphorylase (FKP); BfFKP (Bacteroides fragilis, UniProt Q58T34); assay: NADH coupled assay of fucokinase activity; type: biochemical; settings: co-substrate ATP; C-terminal fucokinase domain
T1 construct: full-length wild type, overexpressed and purified; about 105 kDa protomer, tetramer; model covers residues 71-398 and 467-949

[2] = target: the molecule itself; assay: SEC; purified FKP on size exclusion chromatography; eluted at the volume of the 440 kDa molecular weight marker

Molecule	NADH coupled assay of fucokinase activity [1]	stoichiometry N [2]
C[C@@H]1OC(O)[C@@H](O)[C@H](O)[C@@H]1O (stereo partly drawn) [L-fucose, 6-deoxy-L-galactose]	We applied the NADH coupled assay and the pyrophosphate assay to characterize the fucokinase activity	
B1		4
